The subject of this assay is P388 leukemia ip, CD2F1 mice, survival T/C. Briefly: NCI In Vivo Anticancer Drug Screen. Data for tumor model P388 Leukemia (intraperitoneal) in CD2F1 (CDF1) mice. The conditions noted are these: endpoint: median survival time, higher = longer survival. The protocol:
The antitumor activity of compounds was measured in mice bearing transplantable tumors. Survival or tumor size were measured and the results are expressed as the measurement made in the treated group (T) divided by the measurement made in the vehicle treated control group (C). The tumor model used in this assay is P388 Leukemia (intraperitoneal) in CD2F1 (CDF1) mice

Setting [1] is: dose: 100.0 mg/kg/injection, schedule: Q04DX003 (ip), vehicle: saline with Tween-80.
The mark [2] stands for this setting: dose: 50.0 mg/kg/injection, schedule: Q01DX009 (ip), vehicle: saline with Tween-80.
The mark [3] stands for this setting: dose: 100.0 mg/kg/injection, schedule: Q01DX009 (ip), vehicle: saline with Tween-80.
[4] abbreviates: dose: 200.0 mg/kg/injection, schedule: Q01DX009 (ip), vehicle: saline with Tween-80.
[5] abbreviates: dose: 100.0 mg/kg/injection, schedule: Q04DX002 (ip), vehicle: saline with Tween-80.
[6] abbreviates: dose: 60.0 mg/kg/injection, schedule: Q01DX005 (ip), vehicle: saline with Tween-80.
Where [7] appears, read: dose: 120.0 mg/kg/injection, schedule: Q01DX005 (ip), vehicle: saline with Tween-80.
Setting [8] is: dose: 240.0 mg/kg/injection, schedule: Q01DX005 (ip), vehicle: saline with Tween-80.
[9] abbreviates: dose: 50.0 mg/kg/injection, schedule: Q01DX005 (ip), vehicle: saline with Tween-80.

Drawing on PubChem BioAssay AID330 (DTP/NCI, 2004), this text covers T/C for 22 compounds.

Inconclusive results and toxic doses are left out.

Turning to `COc1ccc(CCNC(=O)c2c3nc4c(C(=O)NCCc5ccc(OC)c(OC)c5)ccc(C)c4oc-3c(C)c(=O)c2N)cc1OC`, the T/C reads like this: (dose: 100.0 mg/kg/injection, schedule: Q04DX003 (ip), vehicle: saline + alcohol) 104 % of control; (dose: 200.0 mg/kg/injection, schedule: Q04DX003 (ip), vehicle: saline + alcohol) 102 % of control; (dose: 400.0 mg/kg/injection, schedule: Q04DX003 (ip), vehicle: saline + alcohol) 105 % of control.
`C[N+](C)(Cn1ncc2ccc([N+](=O)[O-])cc21)Cn1ncc2ccc([N+](=O)[O-])cc21`: the T/C is, setting by setting: (dose: 12.5 mg/kg/injection, schedule: Q04DX003 (ip), vehicle: saline with Tween-80) 100 % of control; (dose: 25.0 mg/kg/injection, schedule: Q04DX003 (ip), vehicle: saline with Tween-80) 97 % of control; (dose: 50.0 mg/kg/injection, schedule: Q04DX003 (ip), vehicle: saline with Tween-80) 92 % of control; under setting [1], 96 % of control.
On to `O=C1Cc2ccccc2N1C1c2ccccc2C=Cc2ccccc21`, for which the T/C is 95 % of control under setting [2], 86 % of control under setting [3] and 89 % of control under setting [4].
In the case of `Cc1cc(=O)[nH]c2nc3ccccc3n12`, the T/C reads like this: under setting [2], 95 % of control; under setting [3], 96 % of control; under setting [4], 100 % of control; (dose: 400.0 mg/kg/injection, schedule: Q01DX009 (ip), vehicle: saline with Tween-80) 104 % of control.
Turning to `COc1ccc(NC(=O)C2C(=O)C(=O)N(c3ccc(OC)cc3)C2=O)cc1` (configuration not stated), the T/C by setting is: under setting [5], 100 % of control; (dose: 200.0 mg/kg/injection, schedule: Q04DX002 (ip), vehicle: saline with Tween-80) 101 % of control.
In the case of `O=C(/C=C/c1c[nH]c2ccccc12)c1cccc([N+](=O)[O-])c1`, the T/C reads like this: under setting [6], 97 % of control; under setting [7], 94 % of control; under setting [8], 92 % of control.
Turning to `O=C1CCCCC1C1=CCCCC1` (configuration not stated), the T/C reads like this: (dose: 50.0 mg/kg/injection, schedule: Q01DX009 (ip), vehicle: Klucel (hydroxypropylcellulose) (HPC)) 109 % of control; (dose: 100.0 mg/kg/injection, schedule: Q01DX009 (ip), vehicle: Klucel (hydroxypropylcellulose) (HPC)) 95 % of control; (dose: 200.0 mg/kg/injection, schedule: Q01DX009 (ip), vehicle: Klucel (hydroxypropylcellulose) (HPC)) 100 % of control; (dose: 400.0 mg/kg/injection, schedule: Q01DX009 (ip), vehicle: Klucel (hydroxypropylcellulose) (HPC)) 92 % of control.
For the compound `C[N+](C)(C)c1ccc2c(c1)CCC/C2=N\N`, the T/C (dose: 1.56 mg/kg/injection, schedule: Q04DX003 (ip), vehicle: saline) was 100 % of control; the T/C (dose: 3.13 mg/kg/injection, schedule: Q04DX003 (ip), vehicle: saline) was 100 % of control; the T/C (dose: 6.25 mg/kg/injection, schedule: Q04DX003 (ip), vehicle: saline) is 97 % of control.
Turning to `CC(=O)Nc1nc(Cl)c2[nH]cnc2n1`, the T/C is 98 % of control (dose: 25.0 mg/kg/injection, schedule: Q01DX005 (ip), vehicle: Klucel (hydroxypropylcellulose) (HPC)); 98 % of control (dose: 50.0 mg/kg/injection, schedule: Q01DX005 (ip), vehicle: Klucel (hydroxypropylcellulose) (HPC)); 102 % of control (dose: 100.0 mg/kg/injection, schedule: Q01DX005 (ip), vehicle: Klucel (hydroxypropylcellulose) (HPC)); 112 % of control (dose: 200.0 mg/kg/injection, schedule: Q01DX005 (ip), vehicle: Klucel (hydroxypropylcellulose) (HPC)).
Turning to `C/C(=C\Cl)COC1CCCCO1` (configuration not stated), the T/C reads like this: under setting [2], 122 % of control; under setting [3], 122 % of control.
In the case of `CN1CCc2cc3c(cc2C1O)OCO3` (configuration not stated), the T/C under setting [9] was 100 % of control and the T/C (dose: 100.0 mg/kg/injection, schedule: Q01DX005 (ip), vehicle: saline with Tween-80) was 110 % of control.
In the case of `CC1=Nc2ccccc2S/C1=C(/C)NN`, the T/C by setting is: (dose: 100.0 mg/kg/injection, schedule: Q01DX001 (ip), vehicle: saline with Tween-80) 104 % of control; (dose: 200.0 mg/kg/injection, schedule: Q01DX001 (ip), vehicle: saline with Tween-80) 104 % of control; (dose: 400.0 mg/kg/injection, schedule: Q01DX001 (ip), vehicle: saline with Tween-80) 95 % of control.
On to `C/C(=C\Cc1cc(O)cc(C)c1O)CC(=O)CC1(C)CCCC1(C)C(=O)/C=C/C(C)(C)O` (configuration not stated), for which the T/C was 110 % of control (dose: 1.5 mg/kg/injection, schedule: Q01DX009 (ip), vehicle: saline with Tween-80); 101 % of control (dose: 3.0 mg/kg/injection, schedule: Q01DX009 (ip), vehicle: saline with Tween-80); 104 % of control (dose: 6.0 mg/kg/injection, schedule: Q01DX009 (ip), vehicle: saline with Tween-80); 103 % of control (dose: 12.0 mg/kg/injection, schedule: Q01DX009 (ip), vehicle: saline with Tween-80).
With `O=c1[nH]c2c([N+](=O)[O-])cc(Cl)cc2nc1/C=C(\O)c1ccc(F)cc1`, the T/C reads like this: under setting [6], 101 % of control; under setting [7], 102 % of control; under setting [8], 106 % of control.
As for `O=C([Se]c1[se]c(=[Se])[se]c1[Se]C(=O)c1ccccc1)c1ccccc1`, the T/C (dose: 7.5 mg/kg/injection, schedule: Q01DX005 (ip), vehicle: saline with Tween-80) was 97 % of control; the T/C (dose: 15.0 mg/kg/injection, schedule: Q01DX005 (ip), vehicle: saline with Tween-80) is 105 % of control; the T/C (dose: 30.0 mg/kg/injection, schedule: Q01DX005 (ip), vehicle: saline with Tween-80) was 105 % of control; the T/C under setting [9] was 88 % of control.
With `Cc1nc(C(=O)c2ccccc2)cnc1-c1ccccc1`, the T/C by setting is: (dose: 60.0 mg/kg/injection, schedule: Q01DX005 (ip), vehicle: Klucel (hydroxypropylcellulose) (HPC)) 92 % of control; (dose: 120.0 mg/kg/injection, schedule: Q01DX005 (ip), vehicle: Klucel (hydroxypropylcellulose) (HPC)) 88 % of control; (dose: 240.0 mg/kg/injection, schedule: Q01DX005 (ip), vehicle: Klucel (hydroxypropylcellulose) (HPC)) 91 % of control.
In the case of `COc1ccc(/C=N/NC(=O)CNC(=O)c2ccc(Cl)c(Cl)c2)cc1`, the T/C runs as follows: (dose: 3.13 mg/kg/injection, schedule: Q01DX009 (ip), vehicle: saline with Tween-80) 100 % of control; (dose: 6.25 mg/kg/injection, schedule: Q01DX009 (ip), vehicle: saline with Tween-80) 108 % of control; (dose: 12.5 mg/kg/injection, schedule: Q01DX009 (ip), vehicle: saline with Tween-80) 107 % of control.
`CSc1ccc2c(NCCCCCCCCNc3c4ccccc4nc4cc(SC)ccc34)c3ccccc3nc2c1`: the T/C by setting is: (dose: 0.63 mg/kg/injection, schedule: Q01DX009 (ip), vehicle: other) 117 % of control; (dose: 1.25 mg/kg/injection, schedule: Q01DX009 (ip), vehicle: other) 119 % of control; (dose: 2.5 mg/kg/injection, schedule: Q01DX009 (ip), vehicle: other) 123 % of control; (dose: 10.0 mg/kg/injection, schedule: Q01DX009 (ip), vehicle: other) 122 % of control.
Turning to `O=C(c1ccc(Cl)cc1)c1cc2ccccc2oc1=O`, the T/C is, setting by setting: under setting [6], 92 % of control; under setting [7], 93 % of control; under setting [8], 93 % of control.
With `CCCCCCCC(=O)NC1CC(O[C@H]2C[C@](O)(C(=O)CO)Cc3c(O)c4c(c(O)c32)C(=O)c2c(OC)cccc2C4=O)OC(C)C1O` (some centres not stated), the T/C (dose: 6.25 mg/kg/injection, schedule: Q01DX009 (ip), vehicle: other) was 153 % of control; the T/C (dose: 12.5 mg/kg/injection, schedule: Q01DX009 (ip), vehicle: other) was 177 % of control; the T/C (dose: 25.0 mg/kg/injection, schedule: Q01DX009 (ip), vehicle: other) was 184 % of control; the T/C (dose: 50.0 mg/kg/injection, schedule: Q01DX009 (ip), vehicle: other) was 155 % of control; the T/C (dose: 100.0 mg/kg/injection, schedule: Q01DX009 (ip), vehicle: other) was 86 % of control.
As to `CSC(/C=C1\C=Cc2ccccc2N1C)=NC#N`, the T/C was 100 % of control (dose: 25.0 mg/kg/injection, schedule: Q04DX002 (ip), vehicle: saline with Tween-80); 106 % of control (dose: 50.0 mg/kg/injection, schedule: Q04DX002 (ip), vehicle: saline with Tween-80); 97 % of control under setting [5].
As for `CCC(c1ccc(Cl)cc1)C(C#N)c1ccccc1` (configuration not stated), the T/C reads like this: under setting [1], 100 % of control; (dose: 200.0 mg/kg/injection, schedule: Q04DX003 (ip), vehicle: saline with Tween-80) 97 % of control; (dose: 400.0 mg/kg/injection, schedule: Q04DX003 (ip), vehicle: saline with Tween-80) 100 % of control.
